Assay results: patent publication US20230097707A1, “METHODS AND ARTICLES FOR KEEPING FOOD FRESHER FOR LONGER AND SHELF-LIFE EXTENSION TO ENHANCE FOOD SECURITY AND SAFETY” (priority 2021, published 2023)

Columns and labels:
[1] = small animal oral toxicity test; assay type: in vivo; conditions: albino rat, aqueous solutions derived from concentrate (EPA/MRID)
Text: Example 1 is a small animal oral toxicity test of 3-(tri-methoxysilyl)propyldimethyl octadecyl ammonium chloride in aqueous solutions derived from concentrate. The small animal was an albino rat (EPA/MRID.) The result acute oral LD50 at 12.27 g (grams) per kg (kilogram.) That is, the lethal dose in 50% of the test subjects 12.27 grams per kilogram of body weight. This translates to a 100 kg person ingesting 1.227 kg of the raw material (or 1723 liters) at one time. The monomer poses no ingestion hazard.

[2] = system: Escherichia coli ATCC 8739; conditions: coated paper, 0.15% by weight of BKC; cited from earlier work
[3] = system: Staphylococcus aureus ATCC 6538; conditions: coated paper, 0.15% by weight of BKC; cited from earlier work

Molecule	acute oral LD50 [1]	inhibition [2]	inhibition [3]
CCCCCCCCCCCCCCCCCC[N+](C)(C)CCC[Si](OC)(OC)OC.[Cl-] [1-Octadecanaminium, N,N-dimethyl-N-[3-(trimethoxysilyl)propyl]-, chloride (1:1)]	12.27 g (grams) per kg (kilogram.)	–	–
N-Alkyl-N-benzyl-N,N-dimethylammonium chloride [BKC]	–	~100%	~100%
